Data published in ChEMBL document CHEMBL1158115, “Acylphloroglucinol derivatives from Hypericum prolificum” (J Nat Prod, 2006).
pIC50: −log10 of the molar value. Calls of active or inactive are those of the source. The rule behind the calls is not given here.

Assays:
MCF7 = assay: Cytotoxicity against human MCF7 cells by MTT assay; format: functional, cell-based
[1] = molecular target: T1, Prostaglandin G/H synthase 2 (Homo sapiens) (UniProt P35354); assay: Inhibition of cyclooxygenase 2 at 103.7 uM
T1 sequence (whole entry): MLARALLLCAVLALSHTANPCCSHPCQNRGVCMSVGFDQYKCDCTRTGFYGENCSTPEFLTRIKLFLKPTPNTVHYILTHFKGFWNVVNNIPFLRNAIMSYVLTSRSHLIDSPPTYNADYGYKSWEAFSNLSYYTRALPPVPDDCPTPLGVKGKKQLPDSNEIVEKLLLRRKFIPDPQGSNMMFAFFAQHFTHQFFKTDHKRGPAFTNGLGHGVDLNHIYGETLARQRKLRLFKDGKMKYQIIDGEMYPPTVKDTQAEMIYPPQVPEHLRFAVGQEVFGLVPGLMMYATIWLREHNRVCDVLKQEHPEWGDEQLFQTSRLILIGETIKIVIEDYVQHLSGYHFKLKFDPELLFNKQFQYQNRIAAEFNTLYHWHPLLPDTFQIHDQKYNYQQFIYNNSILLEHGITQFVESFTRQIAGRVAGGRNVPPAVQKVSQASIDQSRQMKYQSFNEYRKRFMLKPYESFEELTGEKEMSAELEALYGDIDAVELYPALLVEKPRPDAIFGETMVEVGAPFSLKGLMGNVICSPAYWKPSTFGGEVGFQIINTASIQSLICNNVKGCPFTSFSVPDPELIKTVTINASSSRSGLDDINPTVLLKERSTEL

[2] = molecular target: Prostaglandin G/H synthase 1 (Homo sapiens) (UniProt P23219); assay: Inhibition of cyclooxygenase 1 at 103.7 uM
Chain of Prostaglandin G/H synthase 1 (Homo sapiens) (P23219 whole entry): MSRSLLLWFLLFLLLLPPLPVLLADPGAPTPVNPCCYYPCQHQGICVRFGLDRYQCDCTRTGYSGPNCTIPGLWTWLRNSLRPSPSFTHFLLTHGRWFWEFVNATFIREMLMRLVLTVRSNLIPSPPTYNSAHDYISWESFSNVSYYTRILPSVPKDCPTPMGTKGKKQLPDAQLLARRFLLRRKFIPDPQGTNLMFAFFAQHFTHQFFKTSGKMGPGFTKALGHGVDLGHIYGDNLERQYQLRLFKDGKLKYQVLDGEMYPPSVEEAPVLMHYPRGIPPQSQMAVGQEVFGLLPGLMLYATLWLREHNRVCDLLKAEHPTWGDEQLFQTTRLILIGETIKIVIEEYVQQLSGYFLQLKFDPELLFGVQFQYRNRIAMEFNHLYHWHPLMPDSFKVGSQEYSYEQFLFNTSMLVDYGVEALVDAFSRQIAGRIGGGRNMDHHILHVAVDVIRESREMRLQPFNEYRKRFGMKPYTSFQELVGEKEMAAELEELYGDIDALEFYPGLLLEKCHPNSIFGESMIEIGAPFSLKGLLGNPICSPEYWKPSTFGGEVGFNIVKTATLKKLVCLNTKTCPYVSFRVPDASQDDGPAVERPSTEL

NCI-H460 = assay: Cytotoxicity against human NCI-H460 cells by MTT assay; format: functional, cell-based
SF-268 = assay: Cytotoxicity against human SF-268 cells by MTT assay; format: functional, cell-based
AGS = assay: Cytotoxicity against human AGS cells by MTT assay; format: functional, cell-based
HCT-116 = assay: Cytotoxicity against human HCT116 cells by MTT assay; format: functional, cell-based

CCC(C)C(=O)C12C(=O)C=C(O)C(C[C@H](CC=C(C)C)[C@@]1(C)CC/C=C(\C)CCC=C(C)C)C2=O (stereo partly specified)
Activity (MCF7): inactive | Activity [1]: inactive | Activity [2]: inactive | Activity (NCI-H460): inactive | Activity (SF-268): inactive | Activity (AGS): inactive | Activity (HCT-116): inactive

CCC(C)C(=O)c1c(O)cc(O)c2c1O[C@](C)(CC/C=C(\C)CCC=C(C)C)[C@@H](CC=C(C)C)C2 (stereo partly specified) [PROLIFICIN A]
pIC50 (MCF7): 4.63 | Activity [1]: inactive | Activity [2]: inactive | pIC50 (NCI-H460): 4.52 | pIC50 (SF-268): 4.51 | pIC50 (AGS): 4.49 | pIC50 (HCT-116): 4.45

CC(C)=CCC/C(C)=C/CC[C@]1(C)[C@@H](CC=C(C)C)CC2C(=O)C1(C(=O)C(C)C)C(=O)C=C2O (stereo partly specified)
Activity (MCF7): inactive | Activity [1]: inactive | Activity [2]: inactive | Activity (NCI-H460): inactive | Activity (SF-268): inactive | Activity (AGS): inactive | Activity (HCT-116): inactive

COc1cccc2c1C(=O)c1c(O)c3c(c(O)c1C2=O)C[C@@](O)(C(=O)CO)C[C@@H]3O[C@H]1C[C@H](N)[C@H](O)[C@H](C)O1 [DOXORUBICIN]
pIC50 (MCF7): 6.37 | pIC50 (NCI-H460): 6.18 | pIC50 (SF-268): 5.81 | pIC50 (AGS): 6.51 | pIC50 (HCT-116): 6.39
